Data: patent publication US6461997B1, “Triazole sulfones having herbicidal activity” (Monsanto Technology LLC, priority 1999, dated 2002)

How the values were obtained:
SOLNI (black nightshade) = experiment: Pre-emergence herbicidal activity, warm season; type: in vivo, Solanum nigrum; details: GR80 = lowest tested rate (300, 100, 30, 10 g/ha) with 80% or greater inhibition; approx. 14 days after treating; 30/21° C.
Procedure, shortened: (§1)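 Seeds sown in sterilised fertilised topsoil received surface-applied compound in 50:50 acetone/water, typically at 300, 100, 30 and 10 g/ha, then greenhouse-grown at 30/21° C (warm-season species) or 18/13° C (cool-season species). Percent inhibition versus untreated plants was scored at about 14 days, giving GR80; an asterisk marks activity short of 80% at the top rate.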

SINAR (wild mustard) = experiment: Pre-emergence herbicidal activity, cool season; type: in vivo, Sinapis arvensis; details: lowest tested rate with 80% or greater inhibition; rates 300, 100, 30, 10 g/ha; about 14 days
Procedure, shortened: as §1

AMARE (redroot pigweed) = experiment: Pre-emergence herbicidal activity, warm season; type: in vivo, Amaranthus retroflexus; details: GR80 = lowest tested rate (300, 100, 30, 10 g/ha) with 80% or greater inhibition; approx. 14 days after treating; 30/21° C.
Procedure, shortened: as §1

SETVI (green foxtail) = experiment: Pre-emergence herbicidal activity, cool season; type: in vivo, Setaria viridis; details: GR80 = lowest tested rate (300, 100, 30, 10 g/ha) with 80% or greater inhibition; approx. 14 days after treating; 18/13° C.
Procedure, shortened: as §1

[1] = tested on: LAMPU (purple deadnettle); experiment: Pre-emergence herbicidal activity, cool season; type: in vivo, Lamium purpureum; details: lowest tested rate with 80% or greater inhibition; rates 300, 100, 30, 10 g/ha; about 14 days
Procedure, shortened: as §1

[2] = tested on: AGRRE (quackgrass (seedling)); experiment: Pre-emergence herbicidal activity, cool season; type: in vivo, Elymus repens; details: GR80 = lowest tested rate (300, 100, 30, 10 g/ha) with 80% or greater inhibition; approx. 14 days after treating; 18/13° C.
Description: (§2) Tables 5 to 8 summarize results of tests conducted as described below to determine the pre-emergence herbicidal activity, in the form of a GR80 value, of illustrative compounds of this invention. […] Compounds of the invention were typically applied at rates of 300, 100, 30, and 10 g/ha. Where herbicidal activity was evident but 80% inhibition was not achieved at the highest rate tested, an asterisk (*) is shown in the following tables.
(§3) The pre-emergence tests were conducted by the following procedure. Topsoil was sieved to pass through a 1.27 cm screen. Fertilizer was added to the topsoil and the mixture was then sterilized by heating. The topsoil mixture was placed in a pot and compacted to a depth of 1.0 to 1.25 cm from the top of the pot. Seeds of each of several monocotyledonous and dicotyledonous annual plant species were placed on top of the soil. Additional soil was subsequently placed over the seeds to level-fill the pot. A known amount of each test compound dissolved or suspended in an appropriate organic solvent was diluted with a 50:50 mix of acetone and water and applied to the surface of the soil. After treatment the plants were placed in a greenhouse where they received 0.64 cm of overhead irrigation. All subsequent watering consisted of a light overhead mist and/or subirrigation as needed for germination and growth. Tables 5 and 6 below relate to warm season plant species which were placed after pre-emergence treatment in a greenhouse with a 30/21° C. day/night temperature regime. Tables 7 and 8 below relates to cool season plant species placed after pre-emergence treatment in a greenhouse or growth chamber with an 18/13° C. day/night temperature regime.
(§4) Approximately 14 days after planting and treating, the plants were observed and herbicidal efficacy recorded as percent inhibition by comparison with untreated plants.
(§5) The plant species usually regarded as weeds which were utilized in the tests are identified in the tables below according to the following legend, in which “d” indicates a dicotyledonous species and “m” a monocotyledonous species. All monocotyledonous species included in the tests herein are grasses.

[3] = tested on: CIRAR (canada thistle (seedling)); experiment: Pre-emergence herbicidal activity, warm season; type: in vivo, Cirsium arvense; details: GR80 = lowest tested rate (300, 100, 30, 10 g/ha) with 80% or greater inhibition; approx. 14 days after treating; 30/21° C.
Procedure, shortened: as §1

[4] = tested on: AGSST (creeping bentgrass); experiment: Pre-emergence herbicidal activity, cool season; type: in vivo, Agrostis stolonifera; details: GR80 = lowest tested rate (300, 100, 30, 10 g/ha) with 80% or greater inhibition; approx. 14 days after treating; 18/13° C.
Procedure, shortened: as §1

SASKR (russian thistle) = experiment: Pre-emergence herbicidal activity, cool season; type: in vivo, Salsola kali; details: lowest tested rate with 80% or greater inhibition; rates 300, 100, 30, 10 g/ha; about 14 days
Procedure, shortened: as §1

STEME (common chickweed) = experiment: Pre-emergence herbicidal activity, cool season; type: in vivo, Stellaria media; details: lowest tested rate with 80% or greater inhibition; rates 300, 100, 30, 10 g/ha; about 14 days
Procedure, shortened: as §1

[5] = tested on: BRAPP (broadleaf signalgrass); experiment: Pre-emergence herbicidal activity, warm season; type: in vivo, Brachiaria platyphylla; details: GR80 = lowest tested rate (300, 100, 30, 10 g/ha) with 80% or greater inhibition; approx. 14 days after treating; 30/21° C.
Procedure, shortened: as §1

POLCO (wild buckwheat) = experiment: Pre-emergence herbicidal activity, cool season; type: in vivo, Polygonum convolvulus; details: lowest tested rate with 80% or greater inhibition; rates 300, 100, 30, 10 g/ha; about 14 days
Procedure, shortened: (§6)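 Read-out: GR80, derived from percent growth inhibition relative to untreated plants at roughly 14 days after planting and treatment. Compounds went onto the surface of freshly seeded soil at 10–300 g/ha. Day/night regimes were 30/21 °C for millet and crabgrass, 18/13 °C for blackgrass and buckwheat.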

DIGSA (large crabgrass) = experiment: Pre-emergence herbicidal activity, warm season; type: in vivo, Digitaria sanguinalis; details: GR80 = lowest tested rate (300, 100, 30, 10 g/ha) with 80% or greater inhibition; approx. 14 days after treating; 30/21° C.
Procedure, shortened: as §6

[6] = tested on: CHEAL (common lambsquarters); experiment: Pre-emergence herbicidal activity, warm season; type: in vivo, Chenopodium album; details: GR80 = lowest tested rate (300, 100, 30, 10 g/ha) with 80% or greater inhibition; approx. 14 days after treating; 30/21° C.
Procedure, shortened: as §1

KCHSC (kochia) = experiment: Pre-emergence herbicidal activity, cool season; type: in vivo, Kochia scoparia; details: lowest tested rate with 80% or greater inhibition; rates 300, 100, 30, 10 g/ha; about 14 days
Description: as §2, §3, §4, §5

[7] = tested on: GALAP (catchweed bedstraw); experiment: Pre-emergence herbicidal activity, cool season; type: in vivo, Galium aparine; details: lowest tested rate with 80% or greater inhibition; rates 300, 100, 30, 10 g/ha; about 14 days
Procedure, shortened: as §1

[8] = tested on: PANMI (wild proso millet); experiment: Pre-emergence herbicidal activity, warm season; type: in vivo, Panicum miliaceum; details: GR80 = lowest tested rate (300, 100, 30, 10 g/ha) with 80% or greater inhibition; approx. 14 days after treating; 30/21° C.
Procedure, shortened: as §6

SETFA (giant foxtail) = experiment: Pre-emergence herbicidal activity, warm season; type: in vivo, Setaria faberi; details: GR80 = lowest tested rate (300, 100, 30, 10 g/ha) with 80% or greater inhibition; approx. 14 days after treating; 30/21° C.
Procedure, shortened: as §1

ALOMY (blackgrass) = experiment: Pre-emergence herbicidal activity, cool season; type: in vivo, Alopecurus myosuroides; details: GR80 = lowest tested rate (300, 100, 30, 10 g/ha) with 80% or greater inhibition; approx. 14 days after treating; 18/13° C.
Procedure, shortened: as §6

[9] = tested on: SORHA (johnsongrass (seedling)); experiment: Pre-emergence herbicidal activity, warm season; type: in vivo, Sorghum halepense; details: GR80 = lowest tested rate (300, 100, 30, 10 g/ha) with 80% or greater inhibition; approx. 14 days after treating; 30/21° C.
Procedure, shortened: as §1

ECHCG (barnyardgrass) = experiment: Pre-emergence herbicidal activity, warm season; type: in vivo, Echinochloa crus-galli; details: GR80 = lowest tested rate (300, 100, 30, 10 g/ha) with 80% or greater inhibition; approx. 14 days after treating; 30/21° C.
Procedure, shortened: as §1

[10] = tested on: VERPE (creeping speedwell); experiment: Pre-emergence herbicidal activity, cool season; type: in vivo, Veronica persicaria; details: lowest tested rate with 80% or greater inhibition; rates 300, 100, 30, 10 g/ha; about 14 days
Procedure, shortened: as §1

PANDI (fall panicum) = experiment: Pre-emergence herbicidal activity, warm season; type: in vivo, Panicum dichotomiflorum; details: GR80 = lowest tested rate (300, 100, 30, 10 g/ha) with 80% or greater inhibition; approx. 14 days after treating; 30/21° C.
Procedure, shortened: as §1

DATST (jimsonweed) = experiment: Pre-emergence herbicidal activity, warm season; type: in vivo, Datura stramonium; details: GR80 = lowest tested rate (300, 100, 30, 10 g/ha) with 80% or greater inhibition; approx. 14 days after treating; 30/21° C.
Procedure, shortened: as §1

Row | Compound | Pre-emergence activity GR80, SINAR (SINAR (wild mustard)) | Pre-emergence activity (GR80) AMARE (AMARE (redroot pigweed)) | Pre-emergence activity GR80, LAMPU [1] | Pre-emergence activity (GR80) AGRRE [2] | Pre-emergence activity (GR80) AGSST [4] | Pre-emergence activity GR80, SASKR (SASKR (russian thistle)) | Pre-emergence activity GR80, STEME (STEME (common chickweed)) | Pre-emergence activity (GR80) BRAPP [5] | Pre-emergence activity GR80, POLCO (POLCO (wild buckwheat)) | Pre-emergence activity (GR80) DIGSA (DIGSA (large crabgrass)) | Pre-emergence activity (GR80) CHEAL [6] | Pre-emergence activity GR80, KCHSC (KCHSC (kochia)) | Pre-emergence activity GR80, GALAP [7] | Pre-emergence activity (GR80) PANMI [8] | Pre-emergence activity (GR80) SETFA (SETFA (giant foxtail)) | Pre-emergence activity (GR80) ALOMY (ALOMY (blackgrass)) | Pre-emergence activity (GR80) SORHA [9] | Pre-emergence activity (GR80) ECHCG (ECHCG (barnyardgrass)) | Pre-emergence activity GR80, VERPE [10] | also measured
1 | CCN(CC)C(=O)n1cnc(S(=O)(=O)C(F)(F)c2ccccc2)n1 [Example 5] | 100 g/ha | 100 g/ha | [empty] | * (activity observed, at least at highest rate, but <80% inhibition) | 30 g/ha | 300 g/ha | [empty] | 300 g/ha | [empty] | 100 g/ha | 300 g/ha | [empty] | [empty] | 100 g/ha | 100 g/ha | * (activity observed, at least at highest rate, but <80% inhibition) | 100 g/ha | 300 g/ha | 100 g/ha | Pre-emergence activity (GR80) SOLNI (SOLNI (black nightshade)): 300 g/ha; Pre-emergence activity (GR80) SETVI (SETVI (green foxtail)): 100 g/ha; Pre-emergence activity (GR80) CIRAR [3]: 100 g/ha
2 | CCOC(=O)C(F)(F)S(=O)(=O)c1ncn(C(=O)N(CC)CC)n1 [Example 7] | * (activity observed, at least at highest rate, but <80% inhibition) | 300 g/ha | [empty] | 300 g/ha | 300 g/ha | [empty] | 30 g/ha | 300 g/ha | [empty] | 300 g/ha | 300 g/ha | [empty] | [empty] | 300 g/ha | 300 g/ha | * (activity observed, at least at highest rate, but <80% inhibition) | 300 g/ha | 300 g/ha | [empty] | Pre-emergence activity (GR80) PANDI (PANDI (fall panicum)): 300 g/ha; Pre-emergence activity (GR80) DATST (DATST (jimsonweed)): 300 g/ha
